Experimental data as given in US20230330093A1, “APPLICATION OF NITROGEN-CONTAINING SATURATED HETEROCYCLIC COMPOUND” (SHANGHAI PHARMACEUTICALS HOLDING CO., LTD., priority 2020, published 2023).

System: cynomolgus monkeys
Experiment: 4-week safety study: serum biochemistry
Type: in vivo
Method: […] (1) Hematological and coagulation index examination were performed using a Bayer ADVIA2120 (Germany) and a Sysmex CA-1500 (Japan). (2) The serum biochemical examination was assessed using a HITACHI 7080 automated analyzer (Japan) and an Easylyte PLUS electrolyte analyzer (MEDICA, America). (3) The 24-h pooled urine of each animal was collected by a tray under each cage. Urinalysis was carried out using Uritest-300 (China). (4) The 24-h pooled faeces of each monkey were collected by a tray under each cage. Fecal occult blood was detected. (5) ACCESS 2 Chemiluminescence immunoassay was used for myocardial troponin (TropI, non-GLP) test.

Compound: COC(=O)NCCCn1nc([C@@H](C)N(C(=O)[C@H]2CNCCO2)C2CC2)c2ccc(C)nc21 [compound of Formula I]
- CREA (Male, 20 mg/kg, d0): 64.2 ± 7.2 µM
- K (Male, 20 mg/kg, d0): 5.1 ± 0.3 mmol/L
- Na (Male, 20 mg/kg, d0): 148.7 ± 2.0 mmol/L
- BUN (Male, 20 mg/kg, d14): 4.8 ± 0.5 mmol/L
- CHOL (Male, 20 mg/kg, d14): 2.6 ± 0.4 mmol/L
- CPK (Male, 20 mg/kg, d14): 128.2 ± 50.8 U · L^−1
- CREA (Male, 20 mg/kg, d14): 65 ± 4.3 µM
- K (Male, 20 mg/kg, d14): 4.6 ± 0.3 mmol/L
- Na (Male, 20 mg/kg, d14): 148.7 ± 1.6 mmol/L
- BUN (Male, 20 mg/kg, d26): 5.6 ± 0.3 mmol/L
- CHOL (Male, 20 mg/kg, d26): 2.7 ± 0.5 mmol/L
- CPK (Male, 20 mg/kg, d26): 154.4 ± 21.5 U · L^−1
- CREA (Male, 20 mg/kg, d26): 64 ± 5.5 µM
- K (Male, 20 mg/kg, d26): 5.4 ± 0.9 mmol/L
- Na (Male, 20 mg/kg, d26): 147.9 ± 1.9 mmol/L
- BUN (Male, 20 mg/kg, d 56): 5.2 ± 0.4 mmol/L
- CHOL (Male, 20 mg/kg, d 56): 2.6 ± 0.1 mmol/L
- CPK (Male, 20 mg/kg, d 56): 161.0 ± 87.7 U · L^−1
- CREA (Male, 20 mg/kg, d 56): 64 ± 5.7 µM
- K (Male, 20 mg/kg, d 56): 5.3 ± 1.1 mmol/L
- Na (Male, 20 mg/kg, d 56): 144.6 ± 1.6 mmol/L
- BUN (Male, 100 mg/kg, d0): 5.7 ± 0.5 mmol/L
- CHOL (Male, 100 mg/kg, d0): 3.6 ± 0.4 mmol/L
- CPK (Male, 100 mg/kg, d0): 161.4 ± 12.3 U · L^−1
- CREA (Male, 100 mg/kg, d0): 66.6 ± 8.6 µM
- K (Male, 100 mg/kg, d0): 4.8 ± 0.4 mmol/L
- Na (Male, 100 mg/kg, d0): 149.1 ± 2.9 mmol/L
- BUN (Male, 100 mg/kg, d14): 6.1 ± 1.5 mmol/L
- CHOL (Male, 100 mg/kg, d14): 3.0 ± 0.6 mmol/L
- CPK (Male, 100 mg/kg, d14): 213.4 ± 67.1 U · L^−1
- CREA (Male, 100 mg/kg, d14): 63 ± 4.1 µM
- K (Male, 100 mg/kg, d14): 4.8 ± 0.4 mmol/L
- Na (Male, 100 mg/kg, d14): 148.3 ± 2.5 mmol/L
- BUN (Male, 100 mg/kg, d26): 5.9 ± 1.0 mmol/L
- CHOL (Male, 100 mg/kg, d26): 2.8 ± 0.3 mmol/L
- CPK (Male, 100 mg/kg, d26): 179.8 ± 42.1 U · L^−1
- CREA (Male, 100 mg/kg, d26): 63 ± 8.5 µM
- K (Male, 100 mg/kg, d26): 5.2 ± 0.2 mmol/L
- Na (Male, 100 mg/kg, d26): 147.1 ± 2.4 mmol/L
- BUN (Male, 100 mg/kg, d 56): 5.7 ± 1.5 mmol/L
- CHOL (Male, 100 mg/kg, d 56): 2.8 ± 0.6 mmol/L
- CPK (Male, 100 mg/kg, d 56): 109.0 ± 9.9 U · L^−1
- CREA (Male, 100 mg/kg, d 56): 58.5 ± 3.5 µM
- K (Male, 100 mg/kg, d 56): 4.2 ± 0.0 mmol/L
- Na (Male, 100 mg/kg, d 56): 146.5 ± 0.7 mmol/L
- BUN (Male, 450 mg/kg, d0): 5.3 ± 0.6 mmol/L
- CHOL (Male, 450 mg/kg, d0): 3.4 ± 0.5 mmol/L
- CPK (Male, 450 mg/kg, d0): 140.4 ± 44.6 U · L^−1
- CREA (Male, 450 mg/kg, d0): 68.6 ± 5.1 µM
- K (Male, 450 mg/kg, d0): 5.2 ± 0.8 mmol/L
- Na (Male, 450 mg/kg, d0): 148.4 ± 2.5 mmol/L
- BUN (Male, 450 mg/kg, d14): 11.3 ± 6.7 mmol/L
- CHOL (Male, 450 mg/kg, d14): 1.8 ± 0.3 mmol/L
- CPK (Male, 450 mg/kg, d14): 290.2 ± 120.0 U · L^−1
- CREA (Male, 450 mg/kg, d14): 116 ± 74.4 µM
- K (Male, 450 mg/kg, d14): 5.0 ± 0.2 mmol/L
- Na (Male, 450 mg/kg, d14): 146.4 ± 3.3 mmol/L
- BUN (Male, 450 mg/kg, d26): 10.4 ± 3.1 mmol/L
- CHOL (Male, 450 mg/kg, d26): 1.7 ± 0.3 mmol/L
- CPK (Male, 450 mg/kg, d26): 133.6 ± 44.6 U · L^−1
- CREA (Male, 450 mg/kg, d26): 79 ± 2.8 µM
- K (Male, 450 mg/kg, d26): 5.2 ± 0.2 mmol/L
- Na (Male, 450 mg/kg, d26): 144.3 ± 2.2 mmol/L
- BUN (Male, 450 mg/kg, d 56): 5.1 ± 0.0 mmol/L
- CHOL (Male, 450 mg/kg, d 56): 2.8 ± 0.3 mmol/L
- CPK (Male, 450 mg/kg, d 56): 99.5 ± 7.8 U · L^−1
- CREA (Male, 450 mg/kg, d 56): 66.5 ± 3.5 µM
- K (Male, 450 mg/kg, d 56): 4.8 ± 0.8 mmol/L
- Na (Male, 450 mg/kg, d 56): 145.3 ± 1.1 mmol/L
- CREA (high-dose female that died early on d23, d14 data): 526 µM
- CHOL (high-dose males): significantly decreased
- Serum Na level (high-dose males, d26, statistically significant): decreased slightly
- BUN (high-dose, both sexes): significantly increased
- CPK (high-dose, both sexes): significantly increased
- CREA (high-dose, both sexes): significantly increased
